In patent US12661353B2, “SPT5 inhibitors and uses thereof” (Yeda Research and Development Co. Ltd., priority 2020, dated 2026):
Entries after “also recorded” stand apart in the source; their conditions may differ. Where two headings read alike, the source gives them in different places.

Legend:
mutant (Q111) Htt = assay: Htt mRNA levels in Q111 striatal cells, qPCR; as to Down-regulating transcription of Mutant Htt (i.e. inhibiting transcription elongation of mutant Htt gene induced by Spt5): key: + represent a statistically significant effect; assay type: cell-based, mouse; conditions: for effect on mutant (Q111) Htt mRNA expression, in words / Down-regulating transcription of Mutant Htt (i.e. inhibiting transcription elongation of mutant Htt gene induced by Spt5): 48 hours; for Down-regulating transcription of Mutant Htt (i.e. inhibiting transcription elongation of mutant Htt gene induced by Spt5): Q111 striatal cells
Experimental: (§1) Cell culture—HEK293T, HeLa, MCF7, Jurkat and mouse embryonic fibroblasts (MEFs) cells were grown and maintained in Dulbecco's modified Eagle's medium supplemented with 10% fetal calf serum (Gibco) and 1% penicillin-streptomycin. To avoid NF-κB activity, HeLa cells were kept from reaching confluence and re-plated no more than 10 times following initial thawing. To induce NF-κB activity, cells were treated with […] recombinant human TNF-α (Peprotech) for the indicated times. STHdh Q111 and STHdh Q7 striatal cell lines (Coriell Institute for Medical Research) were grown in Dulbecco's modified Eagle's medium supplemented with 10% fetal calf serum (Gibco), 1% penicillin-streptomycin and 0.4 mg/ml G418 at 33° C. The cells were re-plated no more than 5-6 times, as recommended.
Huntington's disease (HD) is an inherited genetic disorder caused by expansion trinucleotide CAG repeats (36 and higher) encoding glutamine (Q) in the huntingtin (Htt) gene. Expression of the mutant gene in neurons of the striatum and the frontal cortex leads to degeneration of neuronal cells that control body movements, emotions and intellect. […] To examine the potential effect of SPIs in this context, striatal cell lines established from wild type (Q7) or from mutant (Q111) Htt knock-in mice were used. In these cell lines the coding region of the first exon of the mouse Htt gene was replaced with the same region of human wild type (Q7) or mutant (Q111) Htt, as schematically shown in FIG. 6A. The two cell lines were treated for 48 hours with the identified SPIs and following the levels of Htt mRNA were determined.
The compounds were tested as described in Example 4 hereinabove. In brief, Q111 (or Q7, where indicated) expressing Striatal cells were treated with the tested compound at the indicated concentrations for 48 hours. Then, RNA was extracted and levels of Htt mRNA were determined by qRT-PCR and normalized to β-actin. The data was analysed using GraphPad Prism software.

Spt5 activities = assay: Combined effects on the various Spt5 activities (summary of Examples 1-4); assay type: cell-based
[1] = system: pro-inflammatory genes A20, CCL20, IL6, IL8, CXCL2, JUNB and IEX1; assay: mRNA levels of pro-inflammatory genes under basal conditions, HeLa, RT-qPCR; assay type: cell-based, human; conditions: HeLa cells, 2 hours, 50 μM SPI
Experimental: as §1
(§2) RNA analysis—Total RNA was extracted using Tri-reagent (Bio-Lab Chemicals) and Direct-Zol™ RNA MiniPrep kit (Zymo Research). Following, cDNA was synthesized from […] of total RNA using a High-Capacity cDNA Reverse Transcription Kit (ABI, Thermo Fisher Scientific). cDNA samples were analyzed by quantitative PCR (qPCR) in a ViiA 7 Real-Time PCR System using Fast qPCRBIO SYBR Green Mix (PCR Biosystems).
Thus, a subset of Spt5-responsive pro-inflammatory genes from the aforementioned studies and from others (Aida et al., 2006; Fujita et al., 2009), namely A20, CCL20, IL6, IL8, CXCL2, JUNB and IEX1, were selected and the effect of the identified SPIs on their expression under basal conditions and in response to NF-κB activation was tested (FIGS. 2A-C and 3A-C). Specifically, for analyzing expression under basal conditions, Hela cells were treated with vehicle (DMSO) or SPI for 2 hours and following RNA was extracted and analyzed by RT-qPCR.

[2] = system: pro-inflammatory genes A20, CCL20, IL6, IL8, CXCL2, JUNB and IEX1; assay: mRNA levels of pro-inflammatory genes under TNFα-induced conditions, HeLa, RT-qPCR; assay type: cell-based, human; conditions: for Down-regulating transcription of pro-inflammatory genes under TNFα induced conditions (i.e. inhibiting transcription elongation of pro-inflammatory genes induced by Spt5): HeLa cells, SPI 1 hour then TNFα 1 hour; for effect on TNFα-induced levels of pro-inflammatory genes, in words: HeLa, SPI (50 μM or less) 1 hour then TNFα 1 hour
Experimental: as §1, §2
In the next step, the effect of the identified SPIs on expression of the selected genes following NF-κB activation was analyzed. Specifically, Hela cells were pre-incubated with DMSO or SPI (50 μM or less) for 1 hour followed by treatment with TNFα for an additional 1 hour.

Row | Structure (SMILES) | effect on mutant (Q111) Htt mRNA expression, in words (mutant (Q111) Htt) | Down-regulating transcription of Mutant Htt (i.e. inhibiting transcription elongation of mutant Htt gene induced by Spt5) (mutant (Q111) Htt) | classification by effect on the various Spt5 activities, in words (Spt5 activities) | classification by effect on the various Spt5 activities, in words (Spt5 activities; listed as SPJ-09) | Up-regulation of pro-inflammatory genes under basal conditions (i.e. inhibiting proximal promoter pausing of pro-inflammatory genes induced by Spt5) [1] | Down-regulating transcription of pro-inflammatory genes under TNFα induced conditions (i.e. inhibiting transcription elongation of pro-inflammatory genes induced by Spt5) [2] | effective concentration on mutant Htt lower than the concentration needed to inhibit expression of the pro-inflammatory genes (mutant (Q111) Htt) | effect on TNFα-induced levels of pro-inflammatory genes, in words [2] | classification by effect on the various Spt5 activities, in words (Spt5 activities; listed as SPJ-85)
1 | O=c1oc2cc(O)ccc2s1 [SPI-09] | diminished mutant Htt expression | + | little or no effect on basal and induced pro-inflammatory gene expression | a single activity as SPI inhibitors towards inhibiting transcription of Htt gene | – | – | – | – | –
2 | N#CC(C#N)=CC=C(Sc1ncc(C(F)(F)F)cc1Cl)c1ccc(Cl)cc1 [SPI-16] | did not affect mutant Htt expression | – | affected the basal and the TNFα-induced pro-inflammatory gene transcription | – | ++ (++ >3) | +++ (+++ represent >80% inhibition) | – | – | –
3 | CN(Cc1cnn(Cc2ccccc2)c1)c1ccc2nnc(-c3ccccc3)n2n1 [SPI-17] | did not affect mutant Htt expression | – | affected the basal and the TNFα-induced pro-inflammatory gene transcription | – | +++ (+++ represent effect >10) | +++ (+++ represent >80% inhibition) | – | – | –
4 | O=C(/C=C/c1ccc(O)cc1)CC(=O)/C=C/c1ccc(O)cc1 [SPI-29] | – | + | affect all the tested Spt5 activities | – | ++ (++ >3) | +++ (+++ represent >80% inhibition) | – | – | –
5 | CCc1ccccc1NS(=O)(=O)c1ccc(-n2ncc(Cl)c(Cl)c2=O)cc1 [SPI-31] | efficacy in selectively inhibiting transcription of Htt gene | + | inhibited mainly the positive activity of Spt5 with little or no effect on proximal promoter pausing; also recorded: a single activity as SPI inhibitors towards inhibiting transcription of Htt gene | – | – | +++ (+++ represent >80% inhibition) | about 15 fold | – | –
6 | CCN(CC)CCOc1ccc(C(=C(Cl)c2ccccc2)c2ccccc2)cc1 [SPI-42] | did not affect mutant Htt expression | – | affected the basal and the TNFα-induced pro-inflammatory gene transcription | – | + (+ >1.6) | ++ (++ >65%) | – | affected mainly the genes that were strongly induced by the TNFα treatment | –
7 | O=C(O)c1ccc(C=C2CSc3c(F)cccc3C2=O)cc1 [SPI-46] | did not affect mutant Htt expression | – | affected the basal and the TNFα-induced pro-inflammatory gene transcription | – | + (+ >1.6) | +++ (+++ represent >80% inhibition) | – | – | –
8 | OCc1ccc(-c2ccc(-c3ccc(CO)s3)o2)s1 [SPI-48] | – | + | a single activity as SPI inhibitors towards inhibiting transcription of Htt gene | – | – | – | – | – | –
9 | Cc1ccnc(SC=CC(=O)c2ccccc2)n1 [SPI-57] | did not affect mutant Htt expression | – | affected the basal and the TNFα-induced pro-inflammatory gene transcription | – | + (+ >1.6) | +++ (+++ represent >80% inhibition) | – | – | –
10 | O=C(O)c1ccc(C=C2CSc3ccc(F)cc3C2=O)cc1 [SPI-68] | – | + | – | – | + (+ >1.6) | ++ (++ >65%) | – | affected mainly the genes that were strongly induced by the TNFα treatment | –
11 | Nc1ccc2ncnc(NCCc3ccc(Oc4ccccc4)cc3)c2c1 [SPI-74] | – | + | affect all the tested Spt5 activities | – | + (+ >1.6) | ++ (++ >65%) | – | affected mainly the genes that were strongly induced by the TNFα treatment | –
12 | CN(C)c1ccc(C2NCC(CSc3nc4ccccc4s3)O2)cc1 (centres unmarked) [SPI-85] | diminished mutant Htt expression | + | little or no effect on basal and induced pro-inflammatory gene expression | – | – | – | – | – | a single activity as SPI inhibitors towards inhibiting transcription of Htt gene
13 | Cn1cc(-c2ccncc2)c(-c2ccc(OCc3ccc4ccccc4n3)cc2)n1 [SPI-95] | did not affect mutant Htt expression | – | affected the basal and the TNFα-induced pro-inflammatory gene transcription | – | + (+ >1.6) | ++ (++ >65%) | – | affected mainly the genes that were strongly induced by the TNFα treatment | –
14 | O=C1C(=Cc2cccc(O)c2)CSCC1=Cc1cccc(O)c1 [SPI-157] | did not affect mutant Htt expression | – | affected the basal and the TNFα-induced pro-inflammatory gene transcription | – | ++ (++ >3) | +++ (+++ represent >80% inhibition) | – | – | –
15 | COc1ccc(C2=NCC(CSc3nc4cc(Cl)ccc4o3)S2)cc1 (centres unmarked) [SPI-0324] | efficacy in selectively inhibiting transcription of Htt gene | – | – | – | – | – | – | – | –
16 | CSc1ccccc1NS(=O)(=O)c1ccc(-n2ncc(Cl)c(Cl)c2=O)cc1 [SPI-1477] | efficacy in selectively inhibiting transcription of Htt gene | – | – | – | – | – | – | – | –
17 | CCc1ccccc1NS(=O)(=O)c1ccc(-n2ncccc2=O)cc1 [SPI-4516K, N-(2-ethylphenyl)-4-(6-oxopyridazin-1(6H)-yl)benzenesulfonamide] | efficacy in selectively inhibiting transcription of Htt gene | – | – | – | – | – | – | – | –
18 | OCc1ccc(-c2ccc(-c3cccs3)s2)s1 [SPI-8108] | efficacy in selectively inhibiting transcription of Htt gene | – | – | – | – | – | – | – | –
